Measured values: ChEMBL document CHEMBL5046267, “Discovery of N-Trisubstituted Pyrimidine Derivatives as Type I RET and RET Gatekeeper Mutant Inhibitors with a Novel Kinase Binding Pose” (J Med Chem, 2022)
Activity calls are given as the source filed them. The calls are words filed in the database; no cut-off is given here.

system: HEK293T; experiment: Inhibition of autophosphorylation of NCOA4-RET V804M mutant (unknown origin) transfected HEK293T cells assessed as inhibition of autophosphorylation of RET at 100 to 2500 nM measured after 2 hrs by Western blotting analysis; format: cell-based; conditions: Homo sapiens, dose 100-2500 nM

| Compound | inhibition |
| --- | --- |
| Cc1cc(Nc2cc(N3CCN(C)CC3)nc(Nc3ccc(CC(=O)Nc4ccc(F)cc4)cc3)n2)[nH]n1 | Active |
| CCN1CCN(c2cc(Nc3cc(C)n[nH]3)nc(Nc3ccc(CC(=O)NCc4cccc(F)c4)cc3)n2)CC1 | Active |
| Cc1cc(Nc2cc(N3CCN(C)CC3)nc(Nc3ccc(CC(=O)Nc4cccc(F)c4)cc3)n2)[nH]n1 | Active |
| Cc1cc(Nc2cc(N3CCN(C)CC3)nc(Nc3ccc(CC(=O)Nc4ccc(C(C)C)cc4)cc3)n2)[nH]n1 | Active |

system: HEK293T; experiment: Inhibition of autophosphorylation of human NCOA4-RET G810R mutant transfected HEK293T cells assessed as inhibition of autophosphorylation of RET at 100 to 2500 nM measured after 2 hrs by Western blotting analysis; format: cell-based; conditions: dose 100-2500 nM

| Compound | inhibition |
| --- | --- |
| Cc1cc(Nc2cc(N3CCN(C)CC3)nc(Nc3ccc(CC(=O)Nc4ccc(F)cc4)cc3)n2)[nH]n1 | inactive |
| CCN1CCN(c2cc(Nc3cc(C)n[nH]3)nc(Nc3ccc(CC(=O)NCc4cccc(F)c4)cc3)n2)CC1 | inactive |
| Cc1cc(Nc2cc(N3CCN(C)CC3)nc(Nc3ccc(CC(=O)Nc4cccc(F)c4)cc3)n2)[nH]n1 | inactive |
| Cc1cc(Nc2cc(N3CCN(C)CC3)nc(Nc3ccc(CC(=O)Nc4ccc(C(C)C)cc4)cc3)n2)[nH]n1 | inactive |
